According to article PMC8426295, “Cytotoxic and radiosensitising effects of a novel thioredoxin reductase inhibitor in breast cancer” (Investigational New Drugs, 2021):

Tested on: triple-negative breast cancer cells
Test: Drug-radiation combination clonogenic survival, stated for TNBC cells together
Type: cell-based, human
Conditions: IQ9 for 4 h followed by irradiation, range over TNBC cell lines
Experimental: 5 × 10^5 cells were seeded in T25 cm^2 tissue culture flasks and incubated overnight. The sub-confluent cells were then treated either for 4-h or 48-h with IQ9 (0–5000 nM) or doxorubicin (10–20 nM). Following drug treatment, cells were collected, counted, and plated at low-density, in triplicate, and incubated, at 37 °C, 5% CO2, undisturbed, for 2 weeks for TNBC cells and 3 weeks for luminal cells, for colony formation. Colonies were fixed (50% methanol in 0.9% saline solution) and stained (0.5% crystal violet solution). Colonies consisting of more than 50 cells were confirmed by microscopy and scored as survivors. The plating efficiency (PE) was calculated as numbers of colonies formed/ numbers of cells plated. For single-agent treatment, drug or radiation, the surviving fraction was calculated as: number of colonies formed/ (numbers of cell plated x PE). […]
Sub-confluent cells were irradiated with a dose of 2, 4, 6, or 8 Gy (at a dose rate of 0.87 Gy/min) using an RS225 x-ray cabinet irradiation system (Xstrahl Limited, UK), fitted with a 0.5 mm Cu filter and run at 195 kV, 10 mA. […] The sensitiser enhancement ratio (SER), calculated by dividing the X-ray dose causing 1% cell survival in the absence of drug treatment by the X-ray dose leading to 1% cell survival in the presence of drug treatment, was used to evaluate the degree of radiosensitisation.

`COC1=CC(=O)c2c(c(COc3c(F)cc(F)cc3F)cn2C)C1=O` [IQ9] was tested, and the “SER values (sensitiser enhancement ratios)” value was 1.20–1.43.
